What was measured:
cisplatin-induced emesis = assay: Suppression of cisplatin-induced emesis in suncus; assay type: in vivo; conditions: hydrochloride 0.3 mg/kg intraperitoneal, 30 min before cisplatin 20 mg/kg i.p.
Method: (§1) It has been known that cisplatin and nicotine have an emesis-inducing activity. In this test, it was investigated as to whether the hydrochloride of compound (1) of the present invention has the activity to suppress the occurrence of emeses which are induced by these drugs.
Cisplatin was intraperitoneally administered to each of four suncuses (20 mg/kg). As a result, with respect to all of the suncuses, emesis occurred 10 to 20 times within 40 to 70 minutes after the administration of the cisplatin.

[1] = system: immobile state of rat in forced swimming test; assay: Anti-depression activity evaluated by forced swimming test using rats; assay type: in vivo, male Wistar strain rats; conditions: hydrochloride; for Time spent in immobile state: 30 min before test, observed 6 min, 6 rats, saline control 236 sec.
Method: 4. Anti-depression activity (which was evaluated by forced swimming test using rats)
When a rat is put in a water tank, the rat struggles for its life to get out of the water (that is, the rat starts a "forced swimming"). If the rat finds that it is impossible for him to get out, the rat stops swimming and assumes an immobile state. It has been known that the administration of an antidepressant can cause a violent swimming motion in the rat for getting out of the water, with a result that the time spent in the immobile state is shortened. The shortening of the time in the immobile state of the rat in the forced swimming test by the administration of the antidepressant is well correlated to the clinical anti-depression effect. Accordingly, in developing antidepressants, the forced swimming test using a rat is the most reliable screening method. In the present test, male Wistar strain rats were used. Compound 300 of the present invention (in the form of the hydrochloride thereof) was intraperitoneally administered to a rat. 30 minutes after the administration, the rat was put in a water tank and then, observed for 6 minutes. The time for the rat to keep the immobile state was measured.

[2] = system: Suncus murinus (motion sickness emesis); assay: Activities against motion sickness: acceleration-stimulus induced emesis in suncus; assay type: in vivo; conditions: 1 mg/kg intraperitoneal, 30 min before acceleration-stimulus (4 cm, 1 Hz), observed 10 min; hydrochloride; 4 suncus
Source text: The activities of individual compounds against motion sickness were examined using Suncus murinus. Suncus murinus is a small animal belonging to the Soricidae family. It has been known that suncus is likely to suffer from motion sickness and is susceptible to occurrence of emesis [see "Seitai-no-kagaku (Science of living body)", 41, 538 (1990)]. Suncus is likely to show symptoms like the symptoms of human motion sickness under the stimulus of simple acceleration, finally leading to the occurrence of emesis. It has been recognized that motion sickness is caused by the occurrence of disorder in information, such as vision, equilibrium sense and the like, or by a stimulus which has never been memorized. Further, it has been recognized that the disorder in the inner earvestibular nucleus pathway and the high-order function of brain take part in the occurrence of motion sickness. Therefore, medicines capable of suppressing the occurrence of emesis of suncus would be useful for preventing and treating motion sickness, space sickness, emesis, dizziness and the like.
In this test, test compounds were individually administered intraperitoneally to suncus.
The time for occurrence of emesis was measured with respect to each of the test compounds, and the results are shown in Table 3.

nicotine-induced emesis = assay: Suppression of nicotine-induced emesis in suncus; assay type: in vivo; conditions: hydrochloride 3 mg/kg intraperitoneal, 30 min before nicotine 4 mg/kg s.c.
Method: as §1
On the other hand, nicotine was subcutaneously administered to four suncuses (4 mg/kg). As a result, with respect to all of the suncuses, emesis was induced 11 to 29 times within 3 to 10 minutes after the administration of the nicotine.

[3] = biological target: T1, serotonin 1A (5HT1A) receptor (Rattus norvegicus, UniProt P19327); assay: Affinity for serotonin 1A (5HT1A) receptor: inhibition of 3H-8-OH-DPAT binding to rat hippocampal membrane fraction; conditions: test compound as hydrochloride
T1 construct: The resultant precipitate was used as a rat hippocampal membrane fraction in the following procedures; from tissue; host or cells: hippocampal membrane fraction of male SD rat (7 weeks old; animals from Charles River)
T1 sequence (P19327 1-422): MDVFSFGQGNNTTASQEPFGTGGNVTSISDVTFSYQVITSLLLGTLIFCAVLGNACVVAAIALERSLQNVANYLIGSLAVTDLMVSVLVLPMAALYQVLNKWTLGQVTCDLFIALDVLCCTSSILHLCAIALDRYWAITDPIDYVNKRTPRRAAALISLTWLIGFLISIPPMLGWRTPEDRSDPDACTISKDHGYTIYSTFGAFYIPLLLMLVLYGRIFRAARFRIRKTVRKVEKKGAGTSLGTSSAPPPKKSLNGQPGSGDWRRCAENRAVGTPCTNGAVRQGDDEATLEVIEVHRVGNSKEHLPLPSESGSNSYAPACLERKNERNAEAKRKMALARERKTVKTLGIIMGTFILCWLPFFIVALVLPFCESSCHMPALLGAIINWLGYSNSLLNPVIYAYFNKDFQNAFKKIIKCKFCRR
Method: 1. Affinity for serotonin 1A (5HT1A) receptor
(A) Preparation of rat hippocampal membrane fraction
A male SD strain rat (7-week old; Charles River) was decapitated, and brain was taken out therefrom quickly. 50 mM Tris-HCl buffer (pH 7.4) was added to the brain under ice cooling to obtain a suspension. The resultant suspension was homogenized, and then subjected to centrifugation at 48000 g for 15 minutes, to thereby obtain a precipitate. The precipitate was resuspended in the same Tris-HCl buffer as used above. The resultant suspension was incubated at 30° C. for 20 minutes to decompose endogenous serotonin of the rat hippocampal membrane, followed by centrifugation at 48000 g for 15 minutes to thereby obtain a precipitate. The resultant precipitate was used as a rat hippocampal membrane fraction in the following procedures.
(B) Method for the evaluation of the binding ability of ^3 H-8-hydroxy-dipropylaminotetralin (^3 H-8-OH-DPAT) to serotonin 1A receptor
The rat hippocampal membrane fraction prepared in step (A) above (about 100 to 200 μg in terms of proteins) was reacted with 0.5 nM (final concentration) ^3 H-8-OH-DPAT (which is commercially available from DuPont-NEN Research Products) and 10 μM (final concentration) pargyline (which is commercially available from Sigma Chemical Company) at 30° C. for 30 minutes to effect a reaction. The resultant reaction mixture was subjected to suction filtration using a Whatman GF/C filter, to thereby terminate the reaction. The radio-activity of ^3 H-8-OH-DPAT adsorbed on the filter was determined using a liquid scintillation counter. The obtained value is regarded as a total amount (TB) of specifically binding ^3 H-8-OH-DPAT and non-specifically binding ^3 H-8-OH-DPAT.
On the other hand, substantially the same procedure as mentioned above was repeated, except that 10 μM (final concentration) serotonin was added to the ^3 H-8-OH-DPAT and pargyline. The radioactivity of ^3 H-8-OH-DPAT adsorbed on the filter was determined in the same manner as mentioned above. The obtained value is regarded as the amount (NB) of non-specifically binding ^3 H-8-OH-DPAT.
Further, substantially the same procedure as mentioned above was repeated, except that, instead of serotonin, a test compound was used in a predetermined concentration. The radioactivity of ^3 H-8-OH-DPAT adsorbed on the filter was determined in the same manner as mentioned above. The obtained value is regarded as the amount (DTB) of binding ^3 H-8-OH-DPAT.
(C) Calculation of Ki value
The inhibition ratio of the test compound (at a certain concentration) against the binding of 3H-8-OH-DPAT (the inhibition ratio is hereinafter referred to simply as "binding inhibition ratio") was calculated according to the following formula:
Binding inhibition ratio (%)=100-(DTB-NB).div.(TB-NB)×100
With respect to each of the test compounds, the binding inhibition ratios at various concentrations (from a higher concentration to a lower concentration) were determined. The binding inhibition ratios were plotted, taking the logarithmic value of the concentration of test compound as the abscissa value, and the binding inhibition ratio as the ordinate value. Then, a curve was drawn by non-linear least square method.
The Ki value was determined according to the following formula:
[L] is the concentration (0.2 nM) of a radioactive ligand (^3 H-8-OH-DPAT) used in the test;

[4] = known, background; cited from earlier work

c1ccc(N2CCN(CCCCOc3cnc4c(n3)CCCC4)CC2)nc1 [Compound 300, 2-[4-{4-(2-Pyridyl)-1-piperazinyl}butoxy]-5,6,7,8-tetrahydroquinoxaline]
occurrence of cisplatin-induced emesis (cisplatin-induced emesis): completely suppressed
time for the rat to keep the immobile state (in words) ([1]; 1 mg/kg and 10 mg/kg): remarkably shortened
Time spent in immobile state ([1]; 1 mg/kg intraperitoneal): 173 s
Time spent in immobile state ([1]; 10 mg/kg intraperitoneal): 163 s
Time for occurrence of emesis [2]: Emesis did not occur
occurrence of nicotine-induced emesis (nicotine-induced emesis): completely suppressed
Ki [3]: 1.6 nM

Cc1nccn1CC1CCc2c(c3ccccc3n2C)C1=O (stereo not shown) [ondansetron]
effect on emesis induced by drugs other than cisplatin [4]: no effect
effect on motion sickness [4]: no effect
suppression of cisplatin-induced emesis [4]: effective for suppressing cisplatin-induced emesis

Reference: patent US5578596A, “2-alkoxy-5,6,7,8-tetrahydroquinoxaline derivatives, and production method and use thereof” (Asahi Kasei Kogyo Kabushiki Kaisha, priority 1992, dated 1996)
